One compound from patent US12138256B2, “Treatment of cardiopulmonary disorders” (Bayer Aktiengesellschaft, priority 2021, dated 2024) can be followed below.

The data set in a line: Phase I single dose inhaled, inhaled + charcoal block, oral and intravenous: pharmacokinetics and lung deposition (C-4.3). The class given is in vivo, human. Particulars: for bioavailability / half-life: male, human, plasma; for half-life: read-out: elimination half-life (converted). The protocol:
Healthy white male subjects, aged 18 to 45 years with a body mass index (BMI) above/equal 18.5 and below/equal 29.9 kg/m^2 were treated in a clinical phase I study with a single inhaled dose of 1000 μg (nominal dose), a single inhaled dose of 1000 μg (nominal dose)+charcoal block, a single oral dose of 1000 μg and a single infusion over 2 h of 100 μg of example 4. As the bioavailability of an intravenous application is generally 100% per definition and therefore higher than in case of an oral or […] administration, the intravenous dose was carefully selected to be lower than the oral and inhaled dose to avoid higher plasma concentration resulting from a high IV dose and potential side effect, e.g. reduction in blood pressure or syncope. Therefore, 100 μg was selected for the IV dose in this investigation. Seven days washout period between treatments was applied. The subjects swallowed a solution for oral administration (20 ml comprising 1000 μg, see under D-2, table 50). The subjects received a solution as a single infusion over 2 hours (see under D-2 table 50). The subjects inhaled the drug powder from capsules (see under D-1, e.g. tables 17 and 20) inserted into a handheld inhalation device by one deep inhalative breath. After inhalation of the dry powder formulation of this drug, some parts of the nominal dose remain in the capsule and the device, the dose which reaches the body at the mouthpiece is called the emitted dose. The emitted dose can be calculated/determined as followed: nominal dose−(remains in the capsule+remains in the device). After inhalation of the dry powder, one part of the emitted dose enters the gastrointestinal tract (GIT) and is called the oral part of the emitted dose, the other part of the emitted dose which reaches the lung through the respiratory airways is called the lung dose and represents the lung deposited dose. As the lung is the target organ of the effect, the lung deposited dose must be quantified. Lung deposition can be indirectly estimated, by determining the part of the nominal dose which reaches the GIT and the remains in the capsule and the device. To investigate and determine lung deposition, the following investigations were done (see also FIG. 77): • 1—Inhaled application of a single dose of 1000 μg of the dry powder. • 2—Inhaled application of a single dose of 1000 μg of the dry powder in combination with oral administration of charcoal block. The charcoal block capped the oral absorption of GIT part of the dose, as example 4 completely adsorbed to charcoal block. This implies that the concentrations of example 4 measured reach the systemic circulation via the lung. • 3—Administration of a single oral dose of 1000 μg example 4 to determine the oral absorption. • 4—Administration of a 2 h infusion of example 4 to investigate the elimination.
Plasma concentrations of example 4 were measured after all different types of administrations, in addition the remains in the device and the capsule were measured after inhaled application. […] The longer terminal half-life after inhalation can be explained by the formation of a pulmonary depot of example 4 in the lungs from which the substance is continuously transferred to the circulatory system.
The emitted dose is calculated to be 720 μg, as the remains in the capsule were 160 μg and the remains in the device were 120 μg, see FIG. 79.

Like-named read-outs stand apart in the source and are kept apart here.

As usually defined, the bioavailability is the share of a dose that reaches the circulation, judged against a reference dose that is usually intravenous. For orientation: half-life means how long it takes for the measured level to halve. As for `O=C(O)c1ccc(CCN(CCc2ccccc2OCc2ccc(-c3ccc(C(F)(F)F)cc3)cc2Cl)[C@H]2CCCc3nc(C(=O)O)ccc32)cc1` [example 4, (5S)-{[2-(4-Carboxyphenyl)ethyl][2-(2-{[3-chloro-4′-(trifluoromethyl)biphenyl-4-yl]methoxy}phenyl)-ethyl]amino}-5,6,7,8-tetrahydroquinoline-2-carboxylic acid], for the setting “after inhalation of 1000 μg in humans”, the emitted dose came to 720 µg. Moreover, the “oral part of the dose” value (inhaled 1000 μg) was “approximately 13 % of the nominal dose”. For the same compound, the bioavailability is, setting by setting: (inhaled or intranasal, 1000 μg, dry powder inhaled with charcoal (lung dose), read-out: absolute bioavailability) 16.3%; (inhaled or intranasal, 1000 μg, dry powder inhaled without charcoal, read-out: absolute bioavailability) 18.8%; (inhaled or intranasal, 1000 ug, read-out: relative bioavailability, inhaled with charcoal block to inhaled without) 86.9%. The half-life is 16.1 h (inhaled or intranasal, 1000 ug, inhaled 1000 μg with charcoal); 15.1 h (inhaled or intranasal, 1000 ug, inhaled 1000 μg without charcoal); 0.26 h (iv, 100 μg, intravenous, 100 μg infusion over 2 h); 4.43 h (po, 1000 ug, oral, 1000 μg solution).
